{"source": "PubChem BioAssay (NCI)", "test_in_all_cases": "NCI-60 cell line screen, 384-well format", "key": {"[1]": {"system": "PC-3 prostate"}, "[2]": {"system": "UO-31 renal"}, "[3]": {"system": "OVCAR-8 ovarian"}, "[4]": {"system": "RXF 393 renal"}, "[5]": {"system": "HCT-116 colon"}, "[6]": {"system": "MDA-MB-468 breast"}, "[7]": {"system": "RPMI-8226 leukemia"}, "[8]": {"system": "SNB-75 CNS"}, "[9]": {"system": "UACC-257 melanoma"}, "[10]": {"system": "HOP-92 NSCLC"}, "[11]": {"system": "BT-549 breast"}, "[12]": {"system": "HT29 colon"}, "[13]": {"system": "UACC-62 melanoma"}}, "note": "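Here, GI50 denotes the concentration required for 50% inhibition of growth. TGI denotes the concentration required for complete inhibition of growth.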", "data": [{"smiles": "CC(=O)N1CCC(Nc2cc(C(=O)NC[C@H](O)CN3CCc4ccccc4C3)ncn2)CC1", "values": [{"measurement": "GI50", "setting": "[1]", "result": "> 100", "unit": "µM"}, {"measurement": "TGI", "setting": "[1]", "result": "> 100", "unit": "µM"}, {"measurement": "GI50", "setting": "[2]", "result": "> 100", "unit": "µM"}, {"measurement": "TGI", "setting": "[2]", "result": "> 100", "unit": "µM"}, {"measurement": "GI50", "setting": "[3]", "result": "> 100", "unit": "µM"}, {"measurement": "TGI", "setting": "[3]", "result": "> 100", "unit": "µM"}, {"measurement": "GI50", "setting": "[4]", "result": "> 100", "unit": "µM"}, {"measurement": "TGI", "setting": "[4]", "result": "> 100", "unit": "µM"}, {"measurement": "GI50", "setting": "[5]", "result": "> 100", "unit": "µM"}, {"measurement": "TGI", "setting": "[5]", "result": "> 100", "unit": "µM"}, {"measurement": "GI50", "setting": "[6]", "result": 29.5, "unit": "µM"}, {"measurement": "TGI", "setting": "[6]", "result": "> 100", "unit": "µM"}, {"measurement": "GI50", "setting": "[7]", "result": 61.6, "unit": "µM"}, {"measurement": "TGI", "setting": "[7]", "result": "> 100", "unit": "µM"}, {"measurement": "GI50", "setting": "[8]", "result": "> 100", "unit": "µM"}, {"measurement": "TGI", "setting": "[8]", "result": "> 100", "unit": "µM"}, {"measurement": "GI50", "setting": "[9]", "result": "> 100", "unit": "µM"}, {"measurement": "TGI", "setting": "[9]", "result": "> 100", "unit": "µM"}, {"measurement": "GI50", "setting": "[10]", "result": "> 28.1", "unit": "µM"}, {"measurement": "TGI", "setting": "[10]", "result": "> 100", "unit": "µM"}, {"measurement": "GI50", "setting": "[11]", "result": "> 100", "unit": "µM"}, {"measurement": "TGI", "setting": "[11]", "result": "> 100", "unit": "µM"}, {"measurement": "GI50", "setting": "[12]", "result": "> 100", "unit": "µM"}, {"measurement": "TGI", "setting": "[12]", "result": "> 100", "unit": "µM"}, {"measurement": "GI50", "setting": "[13]", "result": "> 100", "unit": "µM"}, {"measurement": "TGI", "setting": "[13]", "result": "> 100", "unit": "µM"}]}]}
